Here are results for nine compounds from patent publication US10550143B2, “C,O-spiro aryl glycoside compounds, preparation therefor and use thereof” (SHANGHAI INSTITUTE OF MATERIA MEDICA, CHINESE ACADEMY OF …, priority 2015, dated 2020).

In this assay the target is T1, human sodium-glucose cotransporter 2 (SGLT2) (Homo sapiens, UniProt P31639).
T1 construct: expressed in transfected cells; host or cells: NIH3T3 (mouse fibroblast) cells expressing hSGLT2
T1 sequence (P31639 1-672): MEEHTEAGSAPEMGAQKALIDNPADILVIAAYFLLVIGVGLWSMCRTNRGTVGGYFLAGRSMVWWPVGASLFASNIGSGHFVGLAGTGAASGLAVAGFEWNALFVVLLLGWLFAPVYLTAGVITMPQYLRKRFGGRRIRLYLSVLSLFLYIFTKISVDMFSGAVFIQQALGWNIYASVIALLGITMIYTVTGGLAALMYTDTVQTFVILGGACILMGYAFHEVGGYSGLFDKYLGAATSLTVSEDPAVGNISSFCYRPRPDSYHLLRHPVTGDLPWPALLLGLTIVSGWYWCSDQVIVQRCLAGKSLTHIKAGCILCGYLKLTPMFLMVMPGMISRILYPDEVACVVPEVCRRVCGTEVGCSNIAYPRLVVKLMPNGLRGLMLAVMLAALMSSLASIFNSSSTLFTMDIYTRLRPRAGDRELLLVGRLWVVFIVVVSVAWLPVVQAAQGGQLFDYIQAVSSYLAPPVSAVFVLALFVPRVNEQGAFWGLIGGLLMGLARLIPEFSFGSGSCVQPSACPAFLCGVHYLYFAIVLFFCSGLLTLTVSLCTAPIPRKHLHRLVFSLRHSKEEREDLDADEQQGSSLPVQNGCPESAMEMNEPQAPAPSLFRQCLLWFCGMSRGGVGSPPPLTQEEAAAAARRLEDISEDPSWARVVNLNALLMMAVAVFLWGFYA
Description: In vitro SGLT2 inhibition, methyl-α-D-[U-14C]glucopyranoside uptake in NIH3T3-hSGLT2 cells. Format: cell-based. The following applies: for inhibition at 0.01 µM: SGLT2, 10 nM, read-out: % Inhibition rate ± SD 10 nM; for inhibition at 0.1 µM: SGLT2, 100 nM, read-out: % Inhibition rate ± SD 100 nM. Here is the method:
Inhibition of the compounds of formula I against human sodium-glucose cotransporter 2 (SGLT2) was determined experimentally and the experimental procedures were carried out as reference^1.
Methyl-α-D-[U-^14C] glucopyranoside (Perkin Elmer) Dimethylsulfoxide (Genebase, Prod No: 0231)
(1) Primary screening of hSGLT2 are conducted with two concentrations, 100 nM and 10 nM;
SGLT2 transports D-glucose at 1:1 sodium-glucose ratio, glucose is replaced by the non-metabolic and isotope labeled methyl-aD-[U-^14C] glucopyranoside and methyl-aD-glucopyranoside, and the amount of isotope transferred into the cells was determined.
1) 0.2% gelatin in a 96-well plate was put in a 37° C. incubator for further use;
2) NIH3T3-hSGLT2 cells were injected into 96-well plates, 40000/well, and 100 μL culture medium per well:
3) the fluid was changed in the next day, and sodium butyrate was added into medium at a final concentration of 2 mM;
4) wash the cells with 100 μL of KRH—Na^+ for 3 times and incubate cells with 50 μL for 30 minutes. Cells were changed to 50 μL of compound in KRH—Na^+, uptake buffer (KRH—Na^+ and methyl-α-D-[U-^14C]glucopyranoside and ⅙ mM methyl-α-D-glucopyranoside at 10 μL per well) was added; KRH-acetylcholine solution was used as background control instead of KRH-Na^+
5) washed with 100 μL PBS for 3 times, dried, 50 μL lysate and 150 μL scintillation fluid were added, the membrane was covered and flattened, shaken on a shaker to mix thoroughly, centrifuged at 1500 rpm at 4° C. for 3 min, taken out and read;
6) the results were analyses.
The inhibition rate (% Inhibiton) of each sample at each concentration was calculated by dividing the value of the compound well value minus the background value by the value of the DMSO control well value minus the background value.
IC50 is calculated as follows: […]
The y value is the activity or inhibition percent, the x value is the concentration of the corresponding compound, top (the maximum y value of the curve), bottom (the minimum y value of the curve).

One may read the inhibition as the change of the read-out against control, counted positive when it falls. For `C[C@H]1O[C@]2(OCc3cc(F)c(Cc4cc5ccccc5o4)cc32)[C@H](O)[C@@H](O)[C@@H]1O` [Example A48, (1S,3′R,4′S,5′S,6′R)-6′-methyl-6-(benzo[b]furan-2-methyl)-5-fluoro-3′,4′,5′,6′-tetrahydro-3H-spiro[isobenzofuran-1,2′-pyran]-3′,4′,5′-triol], the inhibition at 0.01 µM came out at 13.1 ± 8.4% and the inhibition at 0.1 µM was found to be 33.2 ± 10.1%.
For `C#Cc1cc2c(cc1Cc1ccc(CC)s1)[C@]1(OC2)O[C@H](C)[C@@H](O)[C@H](O)[C@H]1O` [Example A85, (1S,3′R,4′S,5′S,6′R)-5-ethynyl-6′-methyl-6-((5-ethylthienyl)-2-methyl)-3′,4′,5′,6′-tetrahydro-3H-spiro[isobenzofuran-1,2′-pyran]-3′,4′,5′-triol], in that order: 33.9 ± 14.1% and 50.4 ± 16.9%.
For `C[C@H]1O[C@]2(OCc3cc(Cl)c(Cc4ccc5occc5c4)cc32)[C@H](O)[C@@H](O)[C@@H]1O` [Example A106, (1S,3′R,4′S,5′S,6′R)-6-(benzofuran-5-ylmethyl)-5-chloro-6′-methyl-3′,4′,5′,6′-tetrahydro-3H-spiro[isobenzofuran-1,2′-pyran]-3′,4′,5′-triol], in that order: 4.8 ± 3.9% and 50.8 ± 7.5%.
Consider `C[C@H]1O[C@]2(OCc3cc(Cl)c(Cc4ccc(C5(C#N)CC5)cc4)cc32)[C@H](O)[C@@H](O)[C@@H]1O` [Example A108, 1-(4-(((1S,3′R,4′S,5′S,6′R)-5-chloro-3′,4′,5′-trihydroxy-6′-methyl-3′,4′,5′,6′-tetrahydro-3H-spiro[isobenzofuran-1,2′-pyran]-6-yl)methyl)phenyl)cyclopropane-1-formonitrile], for which the inhibition at 0.01 µM turned out to be 100.4 ± 0.9% and the inhibition at 0.1 µM was found to be 96.2 ± 3.4%.
`C[C@H]1O[C@]2(OCc3cc(Cl)c(Cc4ccc(C5(C#N)CC5)s4)cc32)[C@H](O)[C@@H](O)[C@@H]1O` [Example A109, 1-(5-(((1S,3′R,4′S,5′S,6′R)-5-chloro-3′,4′,5′-trihydroxy-6′-methyl-3′,4′,5′,6′-tetrahydro-3H-spiro[isobenzofuran-1,2′-pyran]-6-yl)methyl)thiophene-2-yl)cyclopropane-1-formonitrile]: the inhibition at 0.01 µM is 86.8 ± 1.6% and the inhibition at 0.1 µM is 62.6 ± 7.2%.
The matching figures for `C[C@H]1O[C@]2(OCc3cc(Cl)c(Cc4ccc(C(F)(F)F)cc4)cc32)[C@H](O)[C@@H](O)[C@@H]1O` [Example A110]: 93 ± 5.9% and 71.5 ± 7.2%.
As for `C[C@H]1O[C@]2(OCc3cc(Cl)c(C(=O)c4ccc(C(F)(F)F)cc4)cc32)[C@H](O)[C@@H](O)[C@@H]1O` [Example A111, ((1S,3′R,4′S,5′S,6′R)-5-chloro-3′,4′,5′-trihydroxy-6′-methyl-3′,4′,5′,6′-tetrahydro-3H-spiro[isobenzofuran-1,2′-pyran]-6-yl)(4-(trifluoromethyl)phenyl)ketone], the inhibition at 0.01 µM is 46.2 ± 11.1% and the inhibition at 0.1 µM amounted to 39.9 ± 10.8%.
For the compound `C[C@H]1O[C@]2(OCc3cc(Cl)c(C(=O)c4ccc(C(F)(F)F)c(F)c4)cc32)[C@H](O)[C@@H](O)[C@@H]1O` [Example A112, ((1S,3′R,4′S,5′S,6′R)-5-chloro-3′,4′,5′-trihydroxy-6′-methyl-3′,4′,5′,6′-tetrahydro-3H-spiro[isobenzofuran-1,2′-pyran]-6-yl)(3-fluoro-4-(trifluoromethyl)phenyl)ketone], the inhibition at 0.01 µM worked out at 34.9 ± 23% and the inhibition at 0.1 µM came to 44.3 ± 15.6%.
For `CCc1ccc(C(=O)c2cc3c(cc2Cl)CO[C@]32O[C@H](C)[C@@H](O)[C@H](O)[C@H]2O)s1` [Example A113, ((1S,3′R,4′S,5′S,6′R)-5-chloro-3′,4′,5′-trihydroxy-6′-methyl-3′,4′,5′,6′-tetrahydro-3H-spiro[isobenzofuran-1,2′-pyran]-6-yl)(5-ethylthiophene-2-yl)ketone], the inhibition at 0.01 µM amounted to 20.9 ± 16.3% and the inhibition at 0.1 µM was found to be 22.5 ± 10.7%.
